Measured values from patent US12178817B2, “Compounds for enhancing PPARγ expression and nuclear translocation and therapeutic use thereof” (REALINN LIFE SCIENCE LIMITED, priority 2015, dated 2024).

Key:
PPARγ = test: Expression of PPARγ in HEK293 cells treated with LPS and dipyridamole (Western blot of nuclear proteins); format: cell-based, human
Method: The cell line used in the assay was human embryonic kidney cells, HEK293. The cells were collected at 0 h, 3 h and 12 h after treatment. The collected cells were washed with 150 μL Buffer A (10 mM Hepes pH=7.9, 1.5 mM MgCl2, 10 mM KCl, 1.0 mM DTT, 0.1% Triton-X 100), and centrifuged at 3000 g for 10 minutes at 4° C. Supernatant containing cytosolic proteins was collected, and the pellets were re-suspended with 50 μL Buffer B (20 mM Hepes pH=7.9, 1.5 mM MgCl2, 0.42M NaCl, 1.0 mM DTT, 1.0M PMSF, 0.2 mM EDTA) and incubated on ice for 30 minutes followed by centrifuging at 12000 g for 10 minutes at 4° C. Supernatant containing nucleic proteins was then collected, and the expression of P65 protein, which is indicative of the activation of PPARγ, was analyzed using Western blotting. The method is as follows: Protein concentration was measured using Bradford assay. 6× sample buffer (0.8 mM Tris-HCl, 10 mM EDTA, 10% SDS, 60% glycerol, 0.6 M β-mercaptoethano, 0.06% bromophenol blue, pH 6.8) was added into 50 μg of nuclear proteins and an equal volume of lysis buffer was added into the samples. After being heated at 95° C. for 10 minutes to denature the proteins, the samples were immediately cooled on ice. […] Photos of the images were taken using automated chemiluminescence and fluorescence imaging system (UVP Biospectrum). […]

[1] = test system: mice with LPS-induced sepsis; test: Survival rate analysis in mice with LPS-induced sepsis; format: in vivo; conditions: high dose
Method: Male C57Bl/6J mice, 8-12 weeks of age, were used in this study. They were reared in an air-conditioned environment with 6 am to 18 pm light cycle and fed standard rodent chow ad libitum. […] First, mice were injected intraperitoneally with LPS (16 mg/kg) and followed for 72 hours to observe the survival rate.

[2] = Non-invasive blood pressure measurement in mice after intravenous administration; conditions: high dose

OCCN(CCO)c1nc(N2CCCCC2)c2nc(N(CCO)CCO)nc(N3CCCCC3)c2n1 [dipyridamole]
PPARγ expression and nuclear translocation (PPARγ): promote PPARγ expression and nuclear translocation | effect on physiological conditions and survival rate [1]: influences physiological conditions and survival rate | effect on blood pressure [2]: leads to changes in blood pressure
